Experimental data published in US6581606B2, “Method, apparatus and system for use in treating patient with a drug having an antineoplastic effect to optimize therapy and prevent an adverse drug response” (The Rx Files Corporation, priority 1999, dated 2003).

Settings: human, in vivo
Procedure: A current dose of Taxol (paclitaxel) is 375 mg.
In this case, the prescriber would use the following information for the patient receiving Taxol: Current Dose 375 mg; Current Marker 660 (a unitless marker indicative of the current platelet count); Desired Marker 1,200 (a unitless marker indicative of where the prescriber wants to see the platelet count raised to); Previous Marker 640 (a unitless marker indicative of the patient's previous ANC).

Compound: CC(=O)O[C@H]1C(=O)[C@@]2(C)[C@H]([C@H](OC(=O)c3ccccc3)[C@]3(O)C[C@H](OC(=O)[C@H](O)[C@@H](NC(=O)c4ccccc4)c4ccccc4)C(C)=C1C3(C)C)[C@]1(OC(C)=O)CO[C@@H]1C[C@@H]2O [Taxol, paclitaxel]
- Previous Marker (patient's previous ANC): 640
